# Reference: PubChem BioAssay AID493133 (Sanford-Burnham Center for Chemical Genomics, 2011)
# Activity calls are given as the source filed them. How the calls were made is not given here.
# Target: Alkaline phosphatase, tissue-nonspecific isozyme (Homo sapiens) (UniProt P05186)
# Assay: human TNAP activity change by analogs – biochemical, selectivity assay for mouse IAP activator project, SAR follow-up (AID 493133)
# Conditions: purified human TNAP enzyme, phosphatase activity counter-screen
# Alkaline phosphatase, tissue-nonspecific isozyme (Homo sapiens), sequence (P05186 whole entry, looked up): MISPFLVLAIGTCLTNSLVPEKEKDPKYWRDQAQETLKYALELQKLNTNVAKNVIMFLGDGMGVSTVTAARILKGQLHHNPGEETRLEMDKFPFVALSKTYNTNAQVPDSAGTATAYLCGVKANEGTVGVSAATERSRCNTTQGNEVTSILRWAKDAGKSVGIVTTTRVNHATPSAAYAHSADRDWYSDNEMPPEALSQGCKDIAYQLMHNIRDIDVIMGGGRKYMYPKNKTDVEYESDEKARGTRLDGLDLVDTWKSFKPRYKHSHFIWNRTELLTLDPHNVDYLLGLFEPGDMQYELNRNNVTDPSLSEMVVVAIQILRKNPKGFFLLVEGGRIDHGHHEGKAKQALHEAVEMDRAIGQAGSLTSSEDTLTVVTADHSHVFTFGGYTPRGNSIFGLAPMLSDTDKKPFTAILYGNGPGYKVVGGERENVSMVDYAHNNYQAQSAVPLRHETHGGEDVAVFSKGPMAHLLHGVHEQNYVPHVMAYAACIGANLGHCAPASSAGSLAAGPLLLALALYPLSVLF
row,EC50,SMILES
1,> 100 µM (inactive),CC(C)c1ccc(NC(=O)CCNS(=O)(=O)c2ccc3[nH]c(=O)oc3c2)cc1
2,> 100 µM (inactive),Cc1ccc(NC(=O)CCNS(=O)(=O)c2ccc3[nH]c(=O)oc3c2)c(C)c1
3,> 100 µM (inactive),O=C1/C(=C/c2ccco2)SC(=S)N1C1CCS(=O)(=O)C1 (stereo unspecified)
4,> 100 µM (inactive),CCOC(=O)NC(=O)CSc1sc2c(O)cc(=O)[nH]c2c1C#N
5,> 100 µM (inactive),O=C(N/N=C/c1ccsc1)c1cc(O)c(O)c(O)c1
6,> 100 µM (inactive),O=C(N/N=C/c1ccc(F)cc1)c1cc(O)c(O)c(O)c1
7,> 100 µM (inactive),COc1cccc(NC(=O)CN(C)S(=O)(=O)c2ccc3[nH]c(=O)oc3c2)c1
8,40.5 µM,COc1cc(C(=O)NNC(=S)NC(=O)c2ccccc2C)cc(OC)c1OC
9,> 100 µM (inactive),COc1ccc(CNC(=O)CSc2sc3c(O)cc(=O)[nH]c3c2C#N)cc1OC
10,> 100 µM (inactive),O=C(c1ccco1)N1CCN(S(=O)(=O)c2ccc3[nH]c(=O)oc3c2)CC1
11,> 100 µM (inactive),O=C(N/N=C/c1ccco1)c1cc(O)c(O)c(O)c1
12,> 100 µM (inactive),Cc1ccc(C)c(NC(=O)CCNS(=O)(=O)c2ccc3[nH]c(=O)oc3c2)c1
13,> 100 µM (inactive),CCN(C(=O)CN1C(=O)/C(=C\c2ccco2)SC1=S)C1CCS(=O)(=O)C1 (stereo unspecified)
14,> 100 µM (inactive),COc1cc(C(=O)NNC(=O)C2CC2)cc(OC)c1OC
15,> 100 µM (inactive),COc1ccc(OC)c(NC(=O)CCNS(=O)(=O)c2ccc3[nH]c(=O)oc3c2)c1
16,> 100 µM (inactive),O=C(CN1C(=O)/C(=C/c2ccco2)SC1=S)Nc1ccc(O)c(C(=O)O)c1
17,> 100 µM (inactive),Cc1ccc(NC(=O)CSc2sc3c(O)cc(=O)[nH]c3c2C#N)c(F)c1
18,> 100 µM (inactive),Cc1ccc(NC(=O)CCNS(=O)(=O)c2ccc3[nH]c(=O)oc3c2)cc1F
19,> 100 µM (inactive),CC(C(=O)Nc1ccccc1C(=O)O)N1C(=O)/C(=C\c2ccco2)SC1=S (stereo unspecified)
20,> 100 µM (inactive),O=C(CN1C(=O)/C(=C\c2ccco2)SC1=S)Nc1ccc(C(=O)O)cc1
21,> 100 µM (inactive),O=C(N/N=C/C1CC2CCC1C2)c1cc(O)c(O)c(O)c1 (stereo unspecified)
22,> 100 µM (inactive),COc1ccc(CNC(=O)CSc2sc3c(O)cc(=O)[nH]c3c2C#N)cc1

row,EC50,SMILES
1,> 100 µM (inactive),N#Cc1cccc(NC(=O)CSc2sc3c(O)cc(=O)[nH]c3c2C#N)c1
2,> 100 µM (inactive),C/C(=N\NC(=O)c1cc(O)c(O)c(O)c1)c1ccncc1
3,> 100 µM (inactive),CCOc1ccccc1NC(=O)CCNS(=O)(=O)c1ccc2[nH]c(=O)oc2c1
4,> 100 µM (inactive),CCOc1cccc(NC(=O)CSc2sc3c(O)cc(=O)[nH]c3c2C#N)c1
5,> 100 µM (inactive),O=C(NN=Cc1cccnc1)c1cc(O)c(O)c(O)c1
6,> 100 µM (inactive),O=[N+]([O-])c1ccc(NC(=S)NCCC(c2ccccc2)c2ccccc2)cc1
7,56 µM,S=C(NCCC(c1ccccc1)c1ccccc1)Nc1ccc(Cl)cc1Cl
8,> 100 µM (inactive),COc1ccc(NC(=O)C(CC(C)C)NS(=O)(=O)c2ccc3[nH]c(=O)oc3c2)cc1 (stereo unspecified)
9,> 100 µM (inactive),O=C(CN1C(=O)/C(=C\c2ccco2)SC1=S)Nc1cccc(C(=O)O)c1
10,> 100 µM (inactive),COC(=O)NNC(=O)c1cc(OC)c(OC)c(OC)c1
11,> 100 µM (inactive),CCCSc1nnc(NC(=O)CSc2sc3c(O)cc(=O)[nH]c3c2C#N)s1
12,> 100 µM (inactive),O=C(CN1C(=O)/C(=C/c2ccco2)SC1=S)Nc1ccc2nccnc2c1
13,> 100 µM (inactive),Cc1ccc(NC(=O)CCNS(=O)(=O)c2ccc3[nH]c(=O)oc3c2)cc1N(C)C
14,> 100 µM (inactive),COc1cc(Cl)c(C)cc1NC(=O)CSc1sc2c(O)cc(=O)[nH]c2c1C#N
15,> 100 µM (inactive),CC(C(=O)NCCc1ccc(O)c(O)c1)N1C(=O)/C(=C\c2ccco2)SC1=S (stereo unspecified)
16,84.5 µM,FC(F)(F)c1cccc(NC(=S)NCCC(c2ccccc2)c2ccccc2)c1
17,> 100 µM (inactive),O=C(CN1C(=O)/C(=C\c2ccco2)SC1=S)Nc1ccccc1C(=O)O
18,> 100 µM (inactive),Cc1ccc(/C=N/NC(=O)c2cc(O)c(O)c(O)c2)cc1
19,> 100 µM (inactive),COc1ccccc1NC(=O)CCNS(=O)(=O)c1ccc2[nH]c(=O)oc2c1
20,> 100 µM (inactive),O=C(CN1C(=O)/C(=C/c2ccco2)SC1=S)N[C@@H]1CSC[C@@H]1O
21,> 100 µM (inactive),N#Cc1c(SCC(=O)Nc2ccccc2C(F)(F)F)sc2c(O)cc(=O)[nH]c12
22,> 100 µM (inactive),O=C(CN1C(=O)/C(=C/c2ccco2)SC1=S)NC1CCS(=O)(=O)C1 (stereo unspecified)

row,EC50,SMILES
1,> 100 µM (inactive),CCOC(=O)N1CCN(S(=O)(=O)c2ccc3[nH]c(=O)oc3c2)CC1
2,> 100 µM (inactive),Cc1cc(NC(=O)CSc2sc3c(O)cc(=O)[nH]c3c2C#N)ccc1Br
3,> 100 µM (inactive),CCOC(=O)N1CCC(NC(=O)CSc2sc3c(O)cc(=O)[nH]c3c2C#N)CC1
4,> 100 µM (inactive),Cc1ccc(Cl)cc1NC(=O)CSc1sc2c(O)cc(=O)[nH]c2c1C#N
5,> 100 µM (inactive),O=C(CN1C(=O)/C(=C/c2ccco2)SC1=S)Nc1cccc(C(=O)O)c1
6,> 100 µM (inactive),Cc1ccc(NC(=O)CCNS(=O)(=O)c2ccc3[nH]c(=O)oc3c2)cc1
7,> 100 µM (inactive),O=C(CCNS(=O)(=O)c1ccc2[nH]c(=O)oc2c1)Nc1ccccc1
8,> 100 µM (inactive),CN(C(=O)CN1C(=O)/C(=C\c2ccco2)SC1=S)C1CCS(=O)(=O)C1 (stereo unspecified)
9,31 µM,COc1cc(C(=O)NN=Cc2ccccn2)cc(OC)c1OC
10,> 100 µM (inactive),CCOc1ccc2nc(NC(=O)CN(C)S(=O)(=O)c3ccc4[nH]c(=O)oc4c3)sc2c1
11,> 100 µM (inactive),CCc1ccc(NC(=O)CN(C)S(=O)(=O)c2ccc3[nH]c(=O)oc3c2)cc1
12,> 100 µM (inactive),CCOc1ccccc1CNC(=O)CCNS(=O)(=O)c1ccc2[nH]c(=O)oc2c1
13,> 100 µM (inactive),O=C(N/N=C/C1CC=CCC1)c1cc(O)c(O)c(O)c1 (stereo unspecified)
14,> 100 µM (inactive),CC(C(=O)Nc1ccc(C(=O)O)c(O)c1)N1C(=O)/C(=C\c2ccco2)SC1=S (stereo unspecified)
15,> 100 µM (inactive),O=C(CN1C(=O)/C(=C/c2ccco2)SC1=S)NC1C=CS(=O)(=O)C1 (stereo unspecified)
16,> 100 µM (inactive),O=S(=O)(Nc1ncccn1)c1ccc(NC(=S)NCCC(c2ccccc2)c2ccccc2)cc1
17,> 100 µM (inactive),CSc1cccc(NC(=O)CCNS(=O)(=O)c2ccc3[nH]c(=O)oc3c2)c1
18,> 100 µM (inactive),O=C(O)CC(C(=O)O)N1C(=O)/C(=C/c2ccc(-c3nc4ccccc4s3)o2)SC1=S (stereo unspecified)
19,> 100 µM (inactive),O=C(C1CCN(S(=O)(=O)c2ccc3[nH]c(=O)oc3c2)CC1)N1CC=C(c2ccccc2)CC1
20,> 100 µM (inactive),COC(=O)c1ccc(C)c(NC(=O)CSc2sc3c(O)cc(=O)[nH]c3c2C#N)c1
21,> 100 µM (inactive),Cc1cc(=O)oc2cc(NC(=S)NCCC(c3ccccc3)c3ccccc3)ccc12
22,> 100 µM (inactive),COc1ccc(Cl)cc1NC(=O)CSc1sc2c(O)cc(=O)[nH]c2c1C#N
